What was measured:
advanced ESCC = assay: Phase Ib/II clinical trial, anti-tumor activity study (RECIST v1.1), with biomarker subgroups; format: in vivo, human
Experimental: From Mar. 9, 2017 to Aug.
PD-L1 was detected in formalin-fixed paraffin-embedded (FFPE) tumor tissue samples by immunohistochemistry (IHC) methods and verified on the VENTANA Benchmark Ultra system at the clinical center laboratory (Q2 laboratory, Beijing). The immunohistochemistry detection of PD-L1 was performed using the Spring Bioscience (Roche) rabbit anti-human PD-L1 monoclonal antibody (clone SP142, Cat No: M4422). The expression of PD-L1 on tumor cells (TCs) and tumor infiltrating immune cells (ICs) was assessed by certified pathologists using stained tumor tissue. The PD-L1 positive status is defined as the presence of tumor cells with membrane staining intensity ≥1% or the presence of PD-LI staining intensity of tumor infiltrating immune cells covering ≥1% of related, continuous pen-cancerous stromal tumor area in the tumor occupied by tumor cells.
During the clinical trial described in Example 1, tumor biopsy samples from 50 subjects were subjected to whole exome sequencing (WES). TMB was determined by analyzing somatic mutations within coding regions of the human genome.

CT-26 cells = assay: Inhibitory effect on tumor growth in CT-26 cell-transplanted B-hPD-1 mice; format: in vivo
Experimental: CT-26 cells were seeded subcutaneously on the right side of hPD-1 humanized female mice at a concentration of 2.5×10^5 cells/0.1 mL, and the mice were randomly grouped by tumor volume when tumors grew to about 93 mm^3 with 7 mice per group, for a total of 4 groups:
G1: Anti-KLH hIgG4 (1 mg/kg) negative control group;
G3: palbociclib (100 mg/kg);
The experiment was ended 11 days after the first administration. Tumor volume and body weight of mice were measured and recorded twice a week. At the end of the experiment, animals were euthanized and tumor growth inhibition (TGITv%) was calculated.

[1] = 59 patients, investigator-assessed RECIST v1.1
[2] = patients with 11q13 amplification (n=24)
[3] = patients with low or no PD-L1 expression (5% cutoff)
[4] = patients without 11q13 amplification (n=26)
[5] = subjects with more than 5% PD-L1 expression
[6] = without vs. with 11q13 amplification

## toripalimab: humanized IgG4 anti-PD-1 mAb comprising light and heavy chain amino acid sequences set forth in SEQ ID NOs: 9 and 10 (WO2014206107)
Advanced ESCC; 59 patients
  ORR confirmed: 15.3%
Advanced ESCC; 59 patients, RECIST v1.1
  DCR: 47.5%
  Optimal response rate: 18.6%
Advanced ESCC; [1]
  CR: 1 case
  PR (including 2 cases of undiagnosed PR): 10 cases
Advanced ESCC; 59 subjects, as of Dec. 31, 2018
  Subjects who had died: 67.8%
Advanced ESCC; PD-L1 negative subjects
  Median PFS: 2.0 months
  ORR: 18.4%
  OS: 6.9 months
Advanced ESCC; PD-L1 positive patients
  OS: 6.7 months
Advanced ESCC; PD-L1 positive patients (≥1% TC or IC, SP142 IHC)
  ORR: 15.8%
Advanced ESCC; PD-L1 positive subjects
  Median PFS: 3.4 months
Advanced ESCC; TMB equal to or greater than 12 mutations/Mb (n=11)
  OR: 18.2%
Advanced ESCC; TMB less than 12 mutations/Mb (n=36)
  OR: 19.4%
Advanced ESCC; Total, 59 people
  Optimal response (%): 18.6%
Advanced ESCC; all patients
  Mean response time: 1.8 months
  Median OS: 6.9 months
  Median PFS: 2.1 months
  Median duration of response: 11.2 months
  Subjects with arbitrary size reduction in target lesions relative to baseline: 42.4%
Advanced ESCC; high TMB (≥12)
  OS: 11.5 months
  PFS: 4.0 months
Advanced ESCC; low TMB (<12)
  OS: 6.7 months
  PFS: 1.9 months
Advanced ESCC; patients with 11q13 amplification
  Median OS: 5.6 months
Advanced ESCC; [2]
  Objective response rate: 42
  PFS: 1.0 month
Advanced ESCC; [3]
  DCR: 42.3%
  ORR: 15.4%
Advanced ESCC; patients without 11q13 amplification
  Median OS: 11.5 months
Advanced ESCC; [4]
  Objective response rate: 30.8%
  PFS: 3.7 months
Advanced ESCC; subgroup Age >60, 29 people
  Optimal response (%): 20.7%
Advanced ESCC; subgroup Age ≤60, 30 people
  Optimal response (%): 16.7%
Advanced ESCC; subgroup ECOG 0, 5 people
  Optimal response (%): 40.0%
Advanced ESCC; subgroup ECOG 1, 54 people
  Optimal response (%): 16.7%
Advanced ESCC; subgroup LDH >ULN, 14 people
  Optimal response (%): 28.6%
Advanced ESCC; subgroup LDH Normal, 45 people
  Optimal response (%): 15.6%
Advanced ESCC; subgroup Liver metastasis No, 43 people
  Optimal response (%): 18.6%
Advanced ESCC; subgroup Liver metastasis Yes, 16 people
  Optimal response (%): 18.8%
Advanced ESCC; subgroup Prior treatment 1, 13 people
  Optimal response (%): 15.4%
Advanced ESCC; subgroup Prior treatment 2, 19 people
  Optimal response (%): 15.8%
Advanced ESCC; subgroup Prior treatment 3+, 27 people
  Optimal response (%): 22.2%
Advanced ESCC; subgroup Sex Female, 7 people
  Optimal response (%): 14.3%
Advanced ESCC; subgroup Sex Male, 52 people
  Optimal response (%): 19.2%
Advanced ESCC; subgroup Tumor volume (baseline target lesion) >100 mm, 13 people
  Optimal response (%): 15.4%
Advanced ESCC; subgroup Tumor volume (baseline target lesion) ≤100 mm, 46 people
  Optimal response (%): 19.6%
Advanced ESCC; [5]
  DCR: 100%
  ORR: 40%
Advanced ESCC; [6]
  HR for OS: 0.60
  HR for PFS: 0.47
CT-26 cells; 11 days after the first administration, toripalimab 1 mg/kg i.p., palbociclib 100 mg/kg orally
  TGI (%): 8.0%
CT-26 cells; mean ± standard error, toripalimab 1 mg/kg i.p. twice a week, palbociclib 100 mg/kg orally once a day, 7 mice per group
  Tumor volume 11 days after the first administration: 2519 ± 320 mm^3

From patent US20220154296A1, “USE OF ANTI-PD-1 ANTIBODY IN PREPARATION OF MEDICAMENT FOR TREATING SOLID TUMORS” (Shanghai Junshi Biosciences Co., Ltd., priority 2019, published 2022)
